Here are results for 6 compounds from patent US12281149B2, “Modulators of G-protein coupled receptors” (priority 2021, dated 2025).

Read-outs that look alike come from different tables or passages of the source. *1 amine or outer side, *2 acyl side, *3 side chain or, on linkers, in order; H or OH if unused. Where a SMILES comes first, the peptide text is derived from it. Side-chain parts run from the residue outwards. [ ]: non-standard residue; d: D form. The star is where a group is joined. Isobutyryl(2-(3-CN-5-F-Ph)) = CC(C)(C(=O)*)c1cc(F)cc(C#N)c1; C20 diacid = O=C(O)CCCCCCCCCCCCCCCCCCC(=O)*; αMePhe(2-F) = C[C@](N)(Cc1ccccc1F)C(=O)O; γGlu = O=C(O)[C@H](CCC(=O)[*:2])N[*:1]; 2Thenoyl(5-Cl) = O=C(c1ccc(Cl)s1)*; X27 = O=C1CC(C(=O)*)(c2ccccc2)CN1; X60 = O=C(C1(c2cccnc2)CCCC1)*; X66 = NC(=O)C1(C(=O)*)CCC1; Ac4c = NC1(C(=O)O)CCC1; X10 = Clc1cccc(N*)c1Cl; AEEA = NCCOCCOCC(=O)O; Aib = CC(C)(N)C(=O)O; CO = O=C([*:1])[*:2]; GABA = NCCCC(=O)O; βAla = NCCC(=O)O

One experiment deals with GLP-1 receptor (Homo sapiens, UniProt P43220). The experiment is described as follows: HitHunter cAMP assay, GLP-1 receptor. Conditions: read-out: Emax GLP-1R. The class given is cell-based. (Changes in cAMP serve as a functional read-out for many G protein-coupled receptors.)
For another experiment, the target named is T1, GIP receptor (Homo sapiens, UniProt P48546).
T1 sequence (P48546 22-466): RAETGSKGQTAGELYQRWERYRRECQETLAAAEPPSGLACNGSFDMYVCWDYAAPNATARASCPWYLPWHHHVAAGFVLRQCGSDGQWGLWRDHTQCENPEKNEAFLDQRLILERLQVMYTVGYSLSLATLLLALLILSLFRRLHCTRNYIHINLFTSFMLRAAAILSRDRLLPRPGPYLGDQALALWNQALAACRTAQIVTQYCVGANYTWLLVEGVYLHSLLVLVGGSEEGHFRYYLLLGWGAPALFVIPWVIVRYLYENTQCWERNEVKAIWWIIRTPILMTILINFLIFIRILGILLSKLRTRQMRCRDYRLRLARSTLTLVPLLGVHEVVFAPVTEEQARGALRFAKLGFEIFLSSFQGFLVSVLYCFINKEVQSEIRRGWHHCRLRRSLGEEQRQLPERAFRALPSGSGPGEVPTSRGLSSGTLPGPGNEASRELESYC
Kind of experiment: HitHunter cAMP assay, GIP receptor. The experiment is classed as cell-based. Conditions: read-out: Emax GIP-1R.

Where [1] appears, read: CHO cells, cAMP, normalized to maximum signal from GLP-1 (high) and DMSO (low).
Where [2] appears, read: CHO cells, cAMP, normalized to maximum signal from GIP (high) and DMSO (low).

Sequence of GLP-1 receptor (P43220 24-463): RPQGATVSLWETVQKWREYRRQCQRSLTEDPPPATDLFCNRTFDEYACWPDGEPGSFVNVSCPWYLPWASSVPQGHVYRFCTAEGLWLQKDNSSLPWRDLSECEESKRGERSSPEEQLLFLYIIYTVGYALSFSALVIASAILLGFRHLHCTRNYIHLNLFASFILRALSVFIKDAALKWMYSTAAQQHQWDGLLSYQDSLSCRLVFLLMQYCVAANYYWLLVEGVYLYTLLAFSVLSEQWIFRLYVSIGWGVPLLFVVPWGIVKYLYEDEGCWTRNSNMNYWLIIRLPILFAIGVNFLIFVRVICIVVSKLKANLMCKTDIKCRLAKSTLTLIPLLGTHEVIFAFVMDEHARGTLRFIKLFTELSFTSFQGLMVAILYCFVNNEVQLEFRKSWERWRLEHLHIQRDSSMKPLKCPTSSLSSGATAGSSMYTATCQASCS

For orientation: Emax means the size of the effect at its maximum, as opposed to the concentration needed. For the compound `CC[C@H](C)[C@H](NC(=O)[C@H](CC(C)C)NC(=O)[C@H](Cc1c[nH]c2ccccc12)NC(=O)[C@H](CCC(N)=O)NC(=O)[C@@H](NC(=O)[C@H](Cc1ccccc1)NC(=O)[C@H](C)NC(=O)[C@H](CCCCNC(=O)COCCOCCNC(=O)COCCOCCNC(=O)CC[C@H](NC(=O)CCCCCCCCCCCCCCCCCCC(=O)O)C(=O)O)NC(=O)[C@H](CCC(N)=O)NC(=O)[C@H](C)NC(=O)[C@@H](NC(=O)[C@H](CCCCN)NC(=O)[C@H](CC(=O)O)NC(=O)[C@H](CC(C)C)NC(=O)C(C)(C)NC(=O)[C@@H](NC(=O)[C@H](CO)NC(=O)[C@H](Cc1ccc(O)cc1)NC(=O)[C@H](CC(=O)O)NC(=O)[C@H](CO)NC(=O)[C@@H](NC(=O)[C@](C)(Cc1ccccc1F)NC(=O)[C@@H](NC(=O)CNC(=O)[C@H](CCC(=O)O)NC(=O)CCNC(=O)C1(c2cccnc2)CCCC1)[C@@H](C)O)[C@@H](C)O)[C@@H](C)CC)[C@@H](C)CC)C(C)C)C(=O)N[C@@H](C)C(=O)NCC(N)=O` [Compound 226] ({X60-βAla}-EGT[αMePhe(2-F)]TSDYSI[Aib]LDKIAQK([AEEA-AEEA-γGlu-C20 diacid])AFVQWLIAG-NH2; N-terminus and C-terminus assumed), the Emax was found to be 104% on GLP-1 receptor (setting [1]) and 102% at GIP receptor (setting [2]).

Turning to `CC[C@H](C)[C@H](NC(=O)[C@H](CC(C)C)NC(=O)[C@H](Cc1c[nH]c2ccccc12)NC(=O)[C@H](CCC(N)=O)NC(=O)[C@@H](NC(=O)[C@H](Cc1ccccc1)NC(=O)[C@H](C)NC(=O)[C@H](CCCCNC(=O)COCCOCCNC(=O)COCCOCCNC(=O)CC[C@H](NC(=O)CCCCCCCCCCCCCCCCCCC(=O)O)C(=O)O)NC(=O)[C@H](CCC(N)=O)NC(=O)[C@H](C)NC(=O)[C@@H](NC(=O)[C@H](CCCCN)NC(=O)[C@H](CC(=O)O)NC(=O)[C@H](CC(C)C)NC(=O)C(C)(C)NC(=O)[C@@H](NC(=O)[C@H](CO)NC(=O)[C@H](Cc1ccc(O)cc1)NC(=O)[C@H](CC(=O)O)NC(=O)[C@H](CO)NC(=O)[C@@H](NC(=O)[C@H](Cc1ccccc1)NC(=O)[C@@H](NC(=O)CNC(=O)[C@H](CCC(=O)O)NC(=O)CCCNC(=O)C1(NC(=O)c2ccc(Cl)s2)CCC1)[C@@H](C)O)[C@@H](C)O)[C@@H](C)CC)[C@@H](C)CC)C(C)C)C(=O)N[C@@H](C)C(=O)NCC(=O)NCC(=O)N1CCC[C@H]1C(=O)N[C@@H](CO)C(=O)N[C@@H](CO)C(=O)NCC(=O)N[C@@H](C)C(=O)N1CCC[C@H]1C(=O)N1CCC[C@H]1C(=O)N1CCC[C@H]1C(=O)N[C@@H](CO)C(N)=O` [Compound 244] ({2Thenoyl(5-Cl)}-[Ac4c][GABA]EGTFTSDYSI[Aib]LDKIAQK([AEEA-AEEA-γGlu-C20 diacid])AFVQWLIAGGPSSGAPPPS-NH2; C-terminus assumed), the Emax on GLP-1 receptor (setting [1]) worked out at 109%; at GIP receptor (setting [2]) it was 120%.

On to `CC[C@H](C)[C@H](NC(=O)[C@H](CC(C)C)NC(=O)[C@H](Cc1c[nH]c2ccccc12)NC(=O)[C@H](CCC(N)=O)NC(=O)[C@@H](NC(=O)[C@H](Cc1ccccc1)NC(=O)[C@H](C)NC(=O)[C@H](CCCCNC(=O)COCCOCCNC(=O)COCCOCCNC(=O)CC[C@H](NC(=O)CCCCCCCCCCCCCCCCCCC(=O)O)C(=O)O)NC(=O)[C@H](CCC(N)=O)NC(=O)[C@H](C)NC(=O)[C@@H](NC(=O)[C@H](CCCCN)NC(=O)[C@H](CC(=O)O)NC(=O)[C@H](CC(C)C)NC(=O)C(C)(C)NC(=O)[C@@H](NC(=O)[C@H](CO)NC(=O)[C@H](Cc1ccc(O)cc1)NC(=O)[C@H](CC(=O)O)NC(=O)[C@H](CO)NC(=O)[C@@H](NC(=O)[C@H](Cc1ccccc1)NC(=O)[C@@H](NC(=O)CNC(=O)[C@H](CCC(=O)O)NC(=O)CCCNC(=O)CNC(=O)Nc1cccc(Cl)c1Cl)[C@@H](C)O)[C@@H](C)O)[C@@H](C)CC)[C@@H](C)CC)C(C)C)C(=O)N[C@@H](C)C(=O)NCC(=O)NCC(=O)N1CCC[C@H]1C(=O)N[C@@H](CO)C(=O)N[C@@H](CO)C(=O)NCC(=O)N[C@@H](C)C(=O)N1CCC[C@H]1C(=O)N1CCC[C@H]1C(=O)N1CCC[C@H]1C(=O)N[C@@H](CO)C(N)=O` [Compound 262] ({X10-CO}-G[GABA]EGTFTSDYSI[Aib]LDKIAQK([AEEA-AEEA-γGlu-C20 diacid])AFVQWLIAGGPSSGAPPPS-NH2; C-terminus assumed), for which the maximal response (Emax) at GLP-1 receptor (CHO) is 90%; at GIP receptor (CHO) it was 106%.

Turning to `CC[C@H](C)[C@H](NC(=O)[C@H](CC(C)C)NC(=O)[C@H](Cc1c[nH]c2ccccc12)NC(=O)[C@H](CCC(N)=O)NC(=O)[C@@H](NC(=O)[C@H](Cc1ccccc1)NC(=O)[C@H](C)NC(=O)[C@H](CCCCNC(=O)COCCOCCNC(=O)COCCOCCNC(=O)CC[C@H](NC(=O)CCCCCCCCCCCCCCCCCCC(=O)O)C(=O)O)NC(=O)[C@H](CCC(N)=O)NC(=O)[C@H](C)NC(=O)[C@@H](NC(=O)[C@H](CCCCN)NC(=O)[C@H](CC(=O)O)NC(=O)[C@H](CC(C)C)NC(=O)C(C)(C)NC(=O)[C@@H](NC(=O)[C@H](CO)NC(=O)[C@H](Cc1ccc(O)cc1)NC(=O)[C@H](CC(=O)O)NC(=O)[C@H](CO)NC(=O)[C@@H](NC(=O)[C@H](Cc1ccccc1)NC(=O)[C@@H](NC(=O)CNC(=O)[C@H](CCC(=O)O)NC(=O)CCNC(=O)C(C)(C)c1cc(F)cc(C#N)c1)[C@@H](C)O)[C@@H](C)O)[C@@H](C)CC)[C@@H](C)CC)C(C)C)C(=O)N[C@@H](C)C(=O)NCC(=O)NCC(=O)N1CCC[C@H]1C(=O)N[C@@H](CO)C(=O)N[C@@H](CO)C(=O)NCC(=O)N[C@@H](C)C(=O)N1CCC[C@H]1C(=O)N1CCC[C@H]1C(=O)N1CCC[C@H]1C(=O)N[C@@H](CO)C(N)=O` [Compound 254] ({Isobutyryl(2-(3-CN-5-F-Ph))-βAla}-EGTFTSDYSI[Aib]LDKIAQK([AEEA-AEEA-γGlu-C20 diacid])AFVQWLIAGGPSSGAPPPS-NH2; C-terminus assumed), the Emax was 93% at GLP-1 receptor (setting [1]) and 102% on GIP receptor (setting [2]).

For the compound `CC[C@H](C)[C@H](NC(=O)[C@H](CC(C)C)NC(=O)[C@H](Cc1c[nH]c2ccccc12)NC(=O)[C@H](CCC(N)=O)NC(=O)[C@@H](NC(=O)[C@H](Cc1ccccc1)NC(=O)[C@H](C)NC(=O)[C@H](CCCCNC(=O)COCCOCCNC(=O)COCCOCCNC(=O)CC[C@H](NC(=O)CCCCCCCCCCCCCCCCCCC(=O)O)C(=O)O)NC(=O)[C@H](CCC(N)=O)NC(=O)[C@H](C)NC(=O)[C@@H](NC(=O)[C@H](CCCCN)NC(=O)[C@H](CC(=O)O)NC(=O)[C@H](CC(C)C)NC(=O)C(C)(C)NC(=O)[C@@H](NC(=O)[C@H](CO)NC(=O)[C@H](Cc1ccc(O)cc1)NC(=O)[C@H](CC(=O)O)NC(=O)[C@H](CO)NC(=O)[C@@H](NC(=O)[C@H](Cc1ccccc1)NC(=O)[C@@H](NC(=O)CNC(=O)[C@H](CCC(=O)O)NC(=O)CCNC(=O)C1(C(N)=O)CCC1)[C@@H](C)O)[C@@H](C)O)[C@@H](C)CC)[C@@H](C)CC)C(C)C)C(=O)N[C@@H](C)C(=O)NCC(=O)NCC(=O)N1CCC[C@H]1C(=O)N[C@@H](CO)C(=O)N[C@@H](CO)C(=O)NCC(=O)N[C@@H](C)C(=O)N1CCC[C@H]1C(=O)N1CCC[C@H]1C(=O)N1CCC[C@H]1C(=O)N[C@@H](CO)C(N)=O` [Compound 257] ({X66-βAla}-EGTFTSDYSI[Aib]LDKIAQK([AEEA-AEEA-γGlu-C20 diacid])AFVQWLIAGGPSSGAPPPS-NH2; C-terminus assumed), the maximum response (Emax) amounted to 89% on GLP-1 receptor (CHO) and 92% on GIP receptor (CHO).

Take `CC[C@H](C)[C@H](NC(=O)[C@H](CC(C)C)NC(=O)[C@H](Cc1c[nH]c2ccccc12)NC(=O)[C@H](CCC(N)=O)NC(=O)[C@@H](NC(=O)[C@H](Cc1ccccc1)NC(=O)[C@H](C)NC(=O)[C@H](CCCCNC(=O)COCCOCCNC(=O)COCCOCCNC(=O)CC[C@H](NC(=O)CCCCCCCCCCCCCCCCCCC(=O)O)C(=O)O)NC(=O)[C@H](CCC(N)=O)NC(=O)[C@H](C)NC(=O)[C@@H](NC(=O)[C@H](CCCCN)NC(=O)[C@H](CC(=O)O)NC(=O)[C@H](CC(C)C)NC(=O)C(C)(C)NC(=O)[C@@H](NC(=O)[C@H](CO)NC(=O)[C@H](Cc1ccc(O)cc1)NC(=O)[C@H](CC(=O)O)NC(=O)[C@H](CO)NC(=O)[C@@H](NC(=O)[C@H](Cc1ccccc1)NC(=O)[C@@H](NC(=O)CNC(=O)[C@H](CCC(=O)O)NC(=O)CCNC(=O)C1(c2ccccc2)CNC(=O)C1)[C@@H](C)O)[C@@H](C)O)[C@@H](C)CC)[C@@H](C)CC)C(C)C)C(=O)N[C@@H](C)C(=O)NCC(=O)NCC(=O)N1CCC[C@H]1C(=O)N[C@@H](CO)C(=O)N[C@@H](CO)C(=O)NCC(=O)N[C@@H](C)C(=O)N1CCC[C@H]1C(=O)N1CCC[C@H]1C(=O)N1CCC[C@H]1C(=O)N[C@@H](CO)C(N)=O` (stereo partly drawn) [Compound 250] ({X27-βAla}-EGTFTSDYSI[Aib]LDKIAQK([AEEA-AEEA-γGlu-C20 diacid])AFVQWLIAGGPSSGAPPPS-NH2; C-terminus assumed): the Emax on GLP-1 receptor (setting [1]) was determined as 90%; on GIP receptor (setting [2]), 89%.
